The values that follow are results of earlier work, collected in patent publication EP1179349B1, “W/O emulsion adjuvant compositions for vaccines” (Lohmann Animal Health GmbH & Co. KG, priority 2000, dated 2002).

For this data set the following is noted: manufacturer's data.

As for `CCCCCCCCCCCCCC(=O)OC(C)C` [Isopropylmyristat], the Toxizität entry is “Keine toxische Wirkung nachweisbar”.
